Patent US20230399311A1, “POLYMORPHS OF SUBSTITUTED ISOQUINOLINE-BASED RHO KINASE INHIBITORS” (BioAxone BioSciences, Inc., priority 2022, published 2023)

Tests used:
[1] = Partition coefficient, octanol/water; format: physicochemical
Procedure: The partition coefficient of NRL-1049 adipate was determined according to the following procedure. In a 500 mL separation funnel, 120 mL water and 120 mL octanol were combined, mixed well, and allowed to separate into two layers. Approximately 100 mL of the organic phase layer and approximately 100 mL from the aqueous phase layer were removed and utilized in the following steps. Three 100 mL separation funnels were labeled as Sample 1, Sample 2, and Sample 3. […] The P values were as follows: Sample 1=0.0053, Sample 2=0.0049, Sample 3=0.0050.

[2] = pH-dependent stability in buffer solutions; format: physicochemical
Procedure: The solutions were stored in vials at 25° C., 40° C., and 60° C. […] Purity was measured by HPLC.

Partition coefficient P (organic phase/aqueous phase) ([1]; Sample 1: 40 mL aqueous phase, 10 mL organic phase (octanol/water)): 0.0053
Partition coefficient P (organic phase/aqueous phase) ([1]; Sample 2: 25 mL aqueous phase, 25 mL organic phase (octanol/water)): 0.0049
Partition coefficient P (organic phase/aqueous phase) ([1]; Sample 3: 10 mL aqueous phase, 40 mL organic phase (octanol/water)): 0.0050
Hydrophilicity (in words) ([1]; from octanol/water P values): highly hydrophilic
Appearance ([2]; Acetate Buffer, 1 Wk, 25° C.): No change
Purity (% Area) ([2]; Acetate Buffer, 1 Wk, 25° C.): 99.7 % Area
pH ([2]; Acetate Buffer, 1 Wk, 25° C.): 4.8
Appearance ([2]; Acetate Buffer, 1 Wk, 40° C.): No change
Purity (% Area) ([2]; Acetate Buffer, 1 Wk, 40° C.): 99.7 % Area
pH ([2]; Acetate Buffer, 1 Wk, 40° C.): 4.7
Appearance ([2]; Acetate Buffer, 1 Wk, 60° C.): No change
Purity (% Area) ([2]; Acetate Buffer, 1 Wk, 60° C.): 99.8 % Area
pH ([2]; Acetate Buffer, 1 Wk, 60° C.): 4.7
Appearance ([2]; Acetate Buffer, 2 Wk, 25° C.): No change
Purity (% Area) ([2]; Acetate Buffer, 2 Wk, 25° C.): 99.7 % Area
pH ([2]; Acetate Buffer, 2 Wk, 25° C.): 4.6
Appearance ([2]; Acetate Buffer, 2 Wk, 40° C.): No change
Purity (% Area) ([2]; Acetate Buffer, 2 Wk, 40° C.): 99.7 % Area
pH ([2]; Acetate Buffer, 2 Wk, 40° C.): 4.5
Appearance ([2]; Acetate Buffer, 2 Wk, 60° C.): No change
Purity (% Area) ([2]; Acetate Buffer, 2 Wk, 60° C.): 99.7 % Area
pH ([2]; Acetate Buffer, 2 Wk, 60° C.): 4.5
Appearance ([2]; Acetate Buffer, 3 Wk, 25° C.): No change
Purity (% Area) ([2]; Acetate Buffer, 3 Wk, 25° C.): 99.6 % Area
pH ([2]; Acetate Buffer, 3 Wk, 25° C.): 4.6
Appearance ([2]; Acetate Buffer, 3 Wk, 40° C.): No change
Purity (% Area) ([2]; Acetate Buffer, 3 Wk, 40° C.): 99.7 % Area
pH ([2]; Acetate Buffer, 3 Wk, 40° C.): 4.5
Appearance ([2]; Acetate Buffer, 3 Wk, 60° C.): No change
Purity (% Area) ([2]; Acetate Buffer, 3 Wk, 60° C.): 99.6 % Area
pH ([2]; Acetate Buffer, 3 Wk, 60° C.): 4.5
Appearance ([2]; Acetate Buffer, Time 0): Clear
Purity (% Area) ([2]; Acetate Buffer, Time 0): 99.8 % Area
pH ([2]; Acetate Buffer, Time 0): 4.6
Appearance ([2]; Hydroxide Buffer, 1 Wk, 25° C.): No change
Purity (% Area) ([2]; Hydroxide Buffer, 1 Wk, 25° C.): 99.7 % Area
pH ([2]; Hydroxide Buffer, 1 Wk, 25° C.): 1.4
Appearance ([2]; Hydroxide Buffer, 1 Wk, 40° C.): No change
Purity (% Area) ([2]; Hydroxide Buffer, 1 Wk, 40° C.): 99.8 % Area
pH ([2]; Hydroxide Buffer, 1 Wk, 40° C.): 1.4
Appearance ([2]; Hydroxide Buffer, 1 Wk, 60° C.): No change
Purity (% Area) ([2]; Hydroxide Buffer, 1 Wk, 60° C.): 99.6 % Area
pH ([2]; Hydroxide Buffer, 1 Wk, 60° C.): 1.3
Appearance ([2]; Hydroxide Buffer, 2 Wk, 25° C.): No change
Purity (% Area) ([2]; Hydroxide Buffer, 2 Wk, 25° C.): 99.7 % Area
pH ([2]; Hydroxide Buffer, 2 Wk, 25° C.): 1.4
Appearance ([2]; Hydroxide Buffer, 2 Wk, 40° C.): No change
Purity (% Area) ([2]; Hydroxide Buffer, 2 Wk, 40° C.): 99.6 % Area
pH ([2]; Hydroxide Buffer, 2 Wk, 40° C.): 1.4
Appearance ([2]; Hydroxide Buffer, 2 Wk, 60° C.): No change
Purity (% Area) ([2]; Hydroxide Buffer, 2 Wk, 60° C.): 99.6 % Area
pH ([2]; Hydroxide Buffer, 2 Wk, 60° C.): 1.3
Appearance ([2]; Hydroxide Buffer, 3 Wk, 25° C.): No change
Purity (% Area) ([2]; Hydroxide Buffer, 3 Wk, 25° C.): 99.6 % Area
pH ([2]; Hydroxide Buffer, 3 Wk, 25° C.): 1.4
Appearance ([2]; Hydroxide Buffer, 3 Wk, 40° C.): No change
Purity (% Area) ([2]; Hydroxide Buffer, 3 Wk, 40° C.): 99.6 % Area
pH ([2]; Hydroxide Buffer, 3 Wk, 40° C.): 1.4
Appearance ([2]; Hydroxide Buffer, 3 Wk, 60° C.): No change
Purity (% Area) ([2]; Hydroxide Buffer, 3 Wk, 60° C.): 99.6 % Area
pH ([2]; Hydroxide Buffer, 3 Wk, 60° C.): 1.3
Appearance ([2]; Hydroxide Buffer, Time 0): Clear
Purity (% Area) ([2]; Hydroxide Buffer, Time 0): 99.7 % Area
pH ([2]; Hydroxide Buffer, Time 0): 1.3
Appearance ([2]; Phosphate Buffer, 1 Wk, 25° C.): No change
Purity (% Area) ([2]; Phosphate Buffer, 1 Wk, 25° C.): 99.4 % Area
pH ([2]; Phosphate Buffer, 1 Wk, 25° C.): 7.0
Appearance ([2]; Phosphate Buffer, 1 Wk, 40° C.): No change
Purity (% Area) ([2]; Phosphate Buffer, 1 Wk, 40° C.): 95.9 % Area
pH ([2]; Phosphate Buffer, 1 Wk, 40° C.): 7.0
Appearance ([2]; Phosphate Buffer, 1 Wk, 60° C.): No change
Purity (% Area) ([2]; Phosphate Buffer, 1 Wk, 60° C.): 91.3 % Area
pH ([2]; Phosphate Buffer, 1 Wk, 60° C.): 6.9
Appearance ([2]; Phosphate Buffer, 2 Wk, 25° C.): No change
Purity (% Area) ([2]; Phosphate Buffer, 2 Wk, 25° C.): 95.4 % Area
pH ([2]; Phosphate Buffer, 2 Wk, 25° C.): 6.7
Appearance ([2]; Phosphate Buffer, 2 Wk, 40° C.): No change
Purity (% Area) ([2]; Phosphate Buffer, 2 Wk, 40° C.): 94.4 % Area
pH ([2]; Phosphate Buffer, 2 Wk, 40° C.): 6.7
Appearance ([2]; Phosphate Buffer, 2 Wk, 60° C.): No change
Purity (% Area) ([2]; Phosphate Buffer, 2 Wk, 60° C.): 83.0 % Area
pH ([2]; Phosphate Buffer, 2 Wk, 60° C.): 6.7
Appearance ([2]; Phosphate Buffer, 3 Wk, 25° C.): No change
Purity (% Area) ([2]; Phosphate Buffer, 3 Wk, 25° C.): 94.9 % Area
pH ([2]; Phosphate Buffer, 3 Wk, 25° C.): 6.7
Appearance ([2]; Phosphate Buffer, 3 Wk, 40° C.): No change
Purity (% Area) ([2]; Phosphate Buffer, 3 Wk, 40° C.): 91.4 % Area
pH ([2]; Phosphate Buffer, 3 Wk, 40° C.): 6.7
Appearance ([2]; Phosphate Buffer, 3 Wk, 60° C.): No change
Purity (% Area) ([2]; Phosphate Buffer, 3 Wk, 60° C.): 78.8 % Area
pH ([2]; Phosphate Buffer, 3 Wk, 60° C.): 6.8
Appearance ([2]; Phosphate Buffer, Time 0): Clear
Purity (% Area) ([2]; Phosphate Buffer, Time 0): 99.5 % Area
pH ([2]; Phosphate Buffer, Time 0): 6.7
Stability as a function of pH (in words) ([2]; pH 1.2 solution): most stable
Stability as a function of pH (in words) ([2]; pH 6.8 buffer): least stable
Structure (SMILES): C[C@@H](N)C1CCN(S(=O)(=O)c2cccc3cnccc23)CC1.O=C(O)CCCCC(=O)O [NRL-1049 Adipate]
